For one assay, the target named is NTR1 (Rattus norvegicus, UniProt P20789). The settings on record: cited from earlier work.
For assay [1], the target named is T1, muscarinic receptor subtype 1 (M1) (Homo sapiens, UniProt P11229).
T1 sequence (P11229 1-460): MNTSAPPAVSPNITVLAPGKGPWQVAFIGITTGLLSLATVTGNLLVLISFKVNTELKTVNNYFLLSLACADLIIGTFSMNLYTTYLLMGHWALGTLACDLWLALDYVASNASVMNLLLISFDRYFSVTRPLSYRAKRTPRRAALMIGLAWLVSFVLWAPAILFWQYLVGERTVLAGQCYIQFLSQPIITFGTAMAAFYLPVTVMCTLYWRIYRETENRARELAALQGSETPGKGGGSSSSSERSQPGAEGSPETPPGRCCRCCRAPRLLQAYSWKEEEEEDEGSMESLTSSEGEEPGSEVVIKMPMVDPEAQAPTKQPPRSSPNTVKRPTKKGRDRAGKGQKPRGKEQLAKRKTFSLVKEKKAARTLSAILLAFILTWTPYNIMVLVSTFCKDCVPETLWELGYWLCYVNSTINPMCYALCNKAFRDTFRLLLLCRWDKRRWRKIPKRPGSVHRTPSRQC
The assay can be described thus: multiplexed competitive binding assay on GPCR microarray. The conditions noted are these: 1 uM unlabeled telenzepine; cocktail of labeled ligands incl. 2 nM Cy3B-telenezepine.
Procedure: FIGS. 2C & 2D, respectively, are graphs of the percent of total detected signal in the presence and absence of 1 μM telenzepine.
A single buffered binding solution composition, according to the invention—including for example, 50 mM Tris-HCl, pH 7.4, 10 mM MgCl2, 1 mM EDTA, 0.1 wt. % BSA—is used for multiplexed competitive binding assay. […] Telenzepine is an antagonist for M1 receptor alone.
(§1) For the binding assays, each individual array was incubated with 10 μl of a solution containing labeled ligand(s) at a particular concentration in the absence and presence of varying amounts (0-1000 nM) of unlabeled compounds. The binding buffer used for all experiments was Tris-HCl (50 mM, pH 7.4) containing 10 mM MgCl2, 0.1% BSA and 1 mM EDTA.
(§2) After executing the binding assays, the microarrays are washed and dried, and then examined using Genepix scanner 4000 (Axon Instruments, Union City, Calif.). Using Genepix software, resulting data is analyzed. Each data point in the plots represents the average of at least three replicate micospots. Using non-linear regression analysis (Graphpad PRISM, Graphpad Software Inc., San Diego, Calif.), one can estimate Kd and IC50.

Assay [2] has as its target neurotensin receptor Subtype-1 (NTR1) (Homo sapiens, UniProt P30989). The settings on record: 100 mM NaCl present or absent; 2 nM Bodipy-TMR-neurotensin 2-13.
Procedure: as §1, §2

SMILES strings stand for the structures.

Sequence of NTR1 (P20789 whole entry): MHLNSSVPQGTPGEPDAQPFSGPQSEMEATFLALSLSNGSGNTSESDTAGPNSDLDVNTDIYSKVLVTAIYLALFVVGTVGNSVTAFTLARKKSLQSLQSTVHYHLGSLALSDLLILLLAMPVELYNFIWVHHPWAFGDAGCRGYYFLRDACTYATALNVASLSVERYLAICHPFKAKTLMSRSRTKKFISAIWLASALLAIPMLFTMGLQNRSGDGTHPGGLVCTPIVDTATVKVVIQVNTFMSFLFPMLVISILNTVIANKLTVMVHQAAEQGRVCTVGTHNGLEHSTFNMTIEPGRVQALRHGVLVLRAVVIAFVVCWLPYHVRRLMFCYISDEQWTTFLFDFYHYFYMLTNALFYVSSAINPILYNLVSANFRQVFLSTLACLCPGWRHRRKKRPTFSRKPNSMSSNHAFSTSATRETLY
Sequence of neurotensin receptor Subtype-1 (NTR1) (P30989 whole entry): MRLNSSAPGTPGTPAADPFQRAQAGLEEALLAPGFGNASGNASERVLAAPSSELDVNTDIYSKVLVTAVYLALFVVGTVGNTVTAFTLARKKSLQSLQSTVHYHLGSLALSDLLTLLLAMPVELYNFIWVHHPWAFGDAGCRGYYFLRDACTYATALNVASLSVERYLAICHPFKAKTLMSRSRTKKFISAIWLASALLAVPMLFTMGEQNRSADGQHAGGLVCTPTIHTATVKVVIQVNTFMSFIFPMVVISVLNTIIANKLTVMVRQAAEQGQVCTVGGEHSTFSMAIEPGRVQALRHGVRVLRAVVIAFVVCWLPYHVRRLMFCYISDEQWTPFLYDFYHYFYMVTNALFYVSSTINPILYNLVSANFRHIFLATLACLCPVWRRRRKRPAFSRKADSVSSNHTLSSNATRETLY

With `[Na+]` [sodium ions], the IC50 (commonly the concentration that inhibits the measured activity by half) on NTR1 (read-out: IC50 for inhibition of binding of radio-labeled neurotensin to NTR1) was 18 mM. At NTR1 (sodium ions at a concentration as low as about 20 mM), the “inhibition of binding of radio-labeled neurotensin to NTR1” value is “at least 50%”.
On to `Cc1scc2c1N(C(=O)CN1CCN(C)CC1)c1ccccc1NC2=O` [telenzepine], for which, in assay [1], the “inhibition of the binding of labeled ligands to M1 receptors” value is “specific and selective inhibition”.
Regarding `[Cl-].[Na+]` [NaCl], the “effect on binding of BT-NT to NTR1 (total binding signal)” value in assay [2] was “strongly influences”.

(Values after patent US7816096B2, “Assay solution compositions and methods for GPCR arrays” (priority 2003, dated 2010).)
